Reference: article PMC6203393, “Identification of novel antimicrobial peptide from Asian sea bass (Lates calcarifer) by in silico and activity characterization” (PLoS ONE, 2018)
Read-outs that look alike come from different tables or passages of the source.

Columns and labels:
[1] = test system: E. faecalis; assay: Antiadhesive assay, pH effect (crystal violet); format: cell-based, Enterococcus faecalis; details: peptide at 1/32×MIC, BHI pH 7.4, 8.5, 9.5, 10.5, 1 hour, 595 nm
[2] = test system: E. faecalis; assay: Antibiofilm assay, pH effect (crystal violet); format: cell-based, Enterococcus faecalis; details: peptide at 1/32×MIC, BHI pH 7.4, 8.5, 9.5, 10.5, 24 hours, 595 nm
[3] = test system: E.coli; assay: Binding affinity to bacteria, cell-based fluorometric ELISA, salt effect; parameters: species or system Escherichia coli; details: in the presence of 10 mM MgCl2; 5-FAM-labeled peptide 2.5μg/ml, 2 hours at 37°C; fluorescence 490/560 nm
Method: Antimicrobial peptides bind to the bacterial cell wall through an electrostatic interaction between the positive charge of AMPs with the negative charge of the bacterial cell wall. […] To determine optimal binding conditions, different concentrations of the bacteria (12.5×10^7, 25×10^7, 5×10^8, 1×10^9 cell/ml) and 5-FAM-labeled peptide (1.25, 2.5, 5, and 10 μg/ml) were prepared. Bacterial suspension from each bacterial concentration was added to 4 wells of Maxisorp 96-well microplates (each well 100 μl) and incubated for 3 hours at 37°C without agitation. The planktonic cells were carefully discarded by pipetting and the adherent cells were washed three times with PBS buffer (pH 7.4). Bacteria were fixed with 100 μl of 4% paraformaldehyde and incubated for 0.5 hours at 37°C. The paraformaldehyde was removed and the wells were washed three times with PBS buffer (pH 7.4). The wells were air-dried and fixed cells were confirmed with an inverted microscope. […] After three washing steps with PBS-T buffer, the fluorescence intensity was measured using a fluorescence microplate reader (BioTek Synergy 4, USA) at 490/560 nm (Ex/Em). […] Under the optimized conditions, the binding affinity of both peptides to bacteria was assessed. […]

[4] = test system: Acinetobacterbaumannii(Clinical isolate); format: cell-based, Acinetobacter baumannii; details: Brain heart infusion; 5×10^5 cell/ml; 18 hours at 37 °C; three independent tests
Method: (§1) Briefly, a series of two-fold dilutions of each peptide(300, 150, 75, 37.5, 18.75, 9.37, 4.68 and 2.34μg/ml) was created with 0.01% acetic acid and 0.2% BSA (bovine serum albumin) and then 50 μl of each peptide dilution was added to each well of polystyrene flat bottom 96-well microplate (Sigma-Aldrich, Germany). Microbial suspension was diluted with BHI medium or RPMI medium to provide density of 1×10^6 cell/ml and 50 μl of diluted microbial suspension was added to wells containing 50 μl of peptide solution, providing a final concentration of 5×10^5 cell/ml and incubated for 18 hours at 37 °C. The sterility control well contained 100 μl of BHI (or RPMI), while the growth control well contained 100 μl of microbial suspension (5×10^5 cell/ml). The MIC values was defined as the lowest peptide concentration that prevented visible growth of the bacteria. Three independent tests were performed for each peptide concentration.

[5] = test system: clinical A. baumannii isolate; assay: Time-kill analysis; format: cell-based, Acinetobacter baumannii; details: 5×10^5 cell/ml in BHI, 37°C, bactericidal = ≥3-log10 reduction, mean of two independent experiments
Method: Time-Kill assay was performed to investigate bactericidal activity of both peptides against antibiotic resistant bacteria including S. aureus (MRSA), and clinical A. baumannii isolate. […] Colony count was performed after incubation at 37°C for 0, 2, 4, 8, 12 and 24 h by plating of 10-fold dilutions on LB agar. […] The lower limit of detection for time-kill assays was 2 log10 CFU/ml.

[6] = test system: Candida albicans (clinical isolate); format: cell-based; details: RPMI medium; 5×10^5 cell/ml; 18 hours at 37 °C; three independent tests
Method: as §1

[7] = test system: Candida tropicalis(clinical isolate); format: cell-based; details: RPMI medium; 5×10^5 cell/ml; 18 hours at 37 °C; three independent tests
Method: as §1

[8] = test system: Pseudomonas aeruginosa (ATCC10662); format: cell-based; details: Brain heart infusion; 5×10^5 cell/ml; 18 hours at 37 °C; three independent tests
Method: as §1

[9] = test system: Staphylococcus aureus(ATCC 25923); format: cell-based; details: Brain heart infusion; 5×10^5 cell/ml; 18 hours at 37 °C; three independent tests
Method: as §1

[10] = test system: Staphylococcus aureus(MRSA); format: cell-based; details: Brain heart infusion; 5×10^5 cell/ml; 18 hours at 37 °C; three independent tests
Method: as §1

[11] = test system: Candida glabrata(clinical isolate); format: cell-based; details: RPMI medium; 5×10^5 cell/ml; 18 hours at 37 °C; three independent tests
Method: as §1

[12] = test system: Staphylococcus epidermidis (ATCC 1435); format: cell-based; details: Brain heart infusion; 5×10^5 cell/ml; 18 hours at 37 °C; three independent tests
Method: as §1

[13] = RP HPLC retention time of peptides; format: physicochemical; details: Inertsil ODS-SP 4.6*250 mm 5μm, linear 0–100% acetonitrile with 0.1% trifluoroacetic acid, 1ml/minute, 30 minutes, highest peak in 214 nm, used as hydrophobicity measure
Method: The retention time of the peptides were calculated by RP HPLC using an analytical SHIMADZU Inertsil ODS-SP (4.6*250 mm* 5μm) column. A linear gradient of 0–100% acetonitrile supplemented with 0.1% trifluoroacetic acid was used to elute peptides at a flow rate 1ml/minute for 30 minutes. The highest peak in 214 nm was considered as the retention time for each peptide.

[14] = test system: Enterococcus faecalis (ATCC:6057); assay: MIC at different pH values; format: cell-based; details: 37°C for 18 hours
Method: The antibacterial activity of both peptides were assessed against Enterococcus faecalis, a bacteria resistance to alkaline environments (ATCC:6057), at different pH values (pH range: 7.4, 8.5, 9.5, or 10.5). The bacteria were cultured in the BHI medium adjusted to varying pH values (pH range: 7.4, 8.5, 9.5, and 10.5). After incubation at 37°C for 18 hours, the MIC values were determined.

[15] = test system: Escherichia coli (ATCC 25922); format: cell-based; details: for increase of MIC value: E.coli
Method: as §1
In the next step, the pH and salt concentration effect on MIC of AMPs were assayed. To evaluate the effect of cations on the antibacterial activity of AMPs, bacteria were cultured in the BHI medium containing increased concentrations of monovalent or divalent salt including NaCl (62,125,250 and 500 mM), MgCl2 (1,5, 10 and 30 mM), respectively.

With “FLRSLLRGAKAIYRGARAGWRG [Dicentracin-like, 22-amino-acid mature AMP from Asian sea bass; synthesized with N-terminal 5-FAM and amidated C-terminus]” the “antiadhesive activity (bacterial adhesion relative to corresponding control)” value [1] was “significantly decrease the bacterial adhesion and biofilm formation at pH values from 7.4 to 9.5”, the “antibiofilm activity (biofilm formation relative to corresponding control)” value [2] was “significantly decrease the bacterial adhesion and biofilm formation at pH values from 7.4 to 9.5” and the “reduction in affinity binding to bacteria” value [3] was 1.6 fold. The “minimum inhibitory concentration (MIC)” value [4] was 18.75 µg/mL, the “time after which bactericidal effect was observed” value ([5]; 1XMIC) was 4 h and the “time after which bactericidal effect was observed” value ([5]; 2XMIC) was 2 h. For the same sequence, the “minimum inhibitory concentration (MIC)” value [6] was 4.68 to 9.37 µg/mL, the “minimum inhibitory concentration (MIC)” value [7] was 4.68 to 9.37 µg/mL and the “minimum inhibitory concentration (MIC)” value [8] was 37.5 µg/mL. The “minimum inhibitory concentration (MIC)” value [9] was 4.68 µg/mL, the “minimum inhibitory concentration (MIC)” value [10] was 4.68 µg/mL and the “minimum inhibitory concentration (MIC)” value [11] was >150 µg/mL. The “minimum inhibitory concentration (MIC)” value [12] was 1.17 µg/mL, the “retention time (main peak)” value [13] was 20.518 min and the “MIC(fold increase)” value ([14]; BHI medium pH 7.4) was 1 fold. The “MIC(fold increase)” value ([14]; BHI medium pH 8.5) was 1 fold, the “MIC(fold increase)” value ([14]; BHI medium pH 8.5, listed as dicentracin-like) was “no reduction” and the “MIC(fold increase)” value ([14]; BHI medium pH 9.5) was 2 fold. For the same sequence, the “MIC(fold increase)” value ([14]; BHI medium pH 10.5) was 4 fold, the “Activity (MIC) against E.coli” value ([15]; BHI medium with MgCl2 1 mM) was 4.68 µg/mL and the “Activity (MIC) against E.coli” value ([15]; BHI medium with MgCl2 5 mM) was 18.75 µg/mL. For the same sequence, the “Activity (MIC) against E.coli” value ([15]; BHI medium with MgCl2 10 mM) was 18.75 µg/mL, the “Activity (MIC) against E.coli” value ([15]; BHI medium with MgCl2 30 mM) was 75 µg/mL and the “Activity (MIC) against E.coli” value ([15]; BHI medium with NaCl 62 mM) was 4.68 µg/mL. The “Activity (MIC) against E.coli” value ([15]; BHI medium with NaCl 125 mM) was 4.68 µg/mL, the “Activity (MIC) against E.coli” value ([15]; BHI medium with NaCl 250 mM) was 6.05 µg/mL and the “Activity (MIC) against E.coli” value ([15]; BHI medium with NaCl 500 mM) was 9.37 µg/mL. For the same sequence, the “minimum inhibitory concentration (MIC)” value ([15]; Brain heart infusion, 5×10^5 cell/ml, 18 hours at 37 °C, lowest concentration preventing visible growth, three independent tests) was 4.68 µg/mL, the “increase of MIC value” ([15]; in the presence of 5 mM and 10 mM MgCl2, MIC (MgCl2) /MIC) was 4 fold and the “increase of MIC value” ([15]; in the presence of 30 mM MgCl2) was 16 fold. The “increase of MIC value” ([15]; in the presence of 500 mM NaCl) was 2 fold and the “Activity (MIC) against E.coli” value ([15]; Physiological salt concentrations (150 mM NaCl 3 mM CaCl2 2 mM MgCl2)) was 4.68 µg/mL.
